Earlier results on two compounds are cited in patent US8546362B2, “Medicinal cream made using neomycin sulphate, betamethasone valerate, and chitosan, and a process to make the same” (priority 2009, dated 2013).

Where two headings read alike, the source gives them in different places.

For data set [1], the system named is Escherichia coli. As to conditions: in vitro.
For data set [2], the system named is Haemophilus influenzae. Particulars: in vitro.
The subject of data set [3] is Moraxella lacunata. As to conditions: in vitro.
For data set [4], the system named is indole-positive and indole-negative Proteus. As to conditions: in vitro.
The subject of data set [5] is Staphylococcus aureus. As to conditions: in vitro.
For data set [6], the system named is S. epidermidis. As to conditions: in vitro.
Data set [7] deals with Serratia. As to conditions: in vitro.
Data set [8] has as its system streptococci.
Data set [9] deals with Pseudomonas aeruginosa.
Data set [10] relates to fungi.
Data set [11] relates to viruses.
Data set [12] has as its system most anaerobic bacteria.
For data set [13] the following is noted: from the peritoneum, draining sinuses, wounds, or surgical sites.

Regarding `NC[C@@H]1O[C@H](O[C@H]2[C@@H](O)[C@H](O[C@@H]3[C@@H](O)[C@H](N)C[C@H](N)[C@H]3O[C@H]3O[C@H](CN)[C@@H](O)[C@H](O)[C@H]3N)O[C@@H]2CO)[C@H](N)[C@@H](O)[C@@H]1O` [Neomycin], the “Concentrations that inhibit most susceptible strains” value in [1], in data set [2], in data set [3], in data set [4], in data set [5] and in data set [6] was 1 to 12.5 µg/mL each time. In data set [7], the “Concentrations that inhibit most susceptible strains” value is 1 to 12.5 µg/mL. Moreover, the values for the Antibacterial activity entry in data set [8] and in [9] were “only minimally active” and “generally resistant”, respectively. For the same compound, the Antimicrobial activity result in [10], in [11] and in data set [12] was “inactive” in each case. Also, the Solubility entry was “very slightly soluble” (in alcohol) and “freely soluble” (in water). In addition, in data set [13], the Absorption entry is “rapidly absorbed”.

Regarding `CCCCC(=O)O[C@]1(C(=O)CO)[C@@H](C)C[C@H]2[C@@H]3CCC4=CC(=O)C=C[C@]4(C)[C@@]3(F)[C@@H](O)C[C@@]21C` [Betamethasone Valerate, 9-Fluoro-11β, 17,21-trihydroxy-16β-methylpregna-1,4-diene-3,20-dione 17-valerate], the Solubility result is on record as “freely soluble” (in acetone); “soluble” (in alcohol); “slightly soluble” (in benzene); “freely soluble” (in chloroform); “slightly soluble” (in ether); “practically insoluble” (in water).
